“Also recorded” adds a separate entry of the source.
Legend:
[1] = Bleaching of tea-stained (BC-1) swatches by aldehyde + NHPI + air in Tergotometer (change in reflectance); settings: aldehyde 15 mM, NHPI 1 mM, carbonate buffer, 30 min, 25° C., 460 nm, average of 2 values (6 for * = Exceptional Bleaching Aldehyde)
Method: A general outline of the essential steps in our experimental protocol are shown below.
a) Measure the initial reflectance of the swatches (Ri).
b) Saturate the wash solution with air.
c) Wash, rinse and dry the swatches.
d) Measure the final reflectance of the swatches (Rf).
All work was conducted in a Tergotometer with 2L stainless steel pots. The swatches were dried flat on a rack in a Kenmore dryer. […] The conditions utilized were as follows:
Initiator N-Hydroxyphthalimide (NHPI, 1 mM)
Aldehyde Aldehyde (15 mM)
Each Tergotometer Pot was filled with 1 liter of milli-Q-water containing carbonate buffer solution which was saturated for 15 minutes with air under agitation at 25° C. Tea stained (BC-1) swatches were washed for 30 minutes in the presence of aldehyde, air and NHPI at pH=8 (25° C.). The corresponding controls (buffer alone, NHPI alone and aldehyde alone) were performed simultaneously. All swatches were rinsed twice for 3 minutes with agitation at 25° C. and dried flat on a rack in a Kenmore with soft heat for 30 minutes.
To quantify the degree of stain removal, the reflectance of 4 stained swatches (4 per pot) were measured before and after washing using a Gardner reflectometer (Model #2000) set at 460*nm (*UV filter). The change in reflectance (ΔR) was determined by taking the difference of the swatch before and after each washing. The standard deviation (σ) and ΔΔRave was assigned to each experimental group.
Rl =Initial reflectance of stained swatch before washing.
Rf =Final reflectance of stained swatch after washing.
ΔRaldehyde system+control -ΔRcontrol =ΔΔR
ΔΔRave =Represents the average bleaching by the aldehyde system.
In general, the larger the ΔΔRave value, the greater the bleaching and cleaning.
(σ)=[Σ^n aj -aa)^2 /N-I]^0.5
Σ^n =sum (aj -aa)^2 per measurement
N=number of measurements=8

[2] = Bleaching on BC-1 by 4-Ethylbenzaldehyde with various initiators; parameters: key to Δ(ΔR), #1 / Δ(ΔR), #2 / Δ(ΔR), #3 / Δ(ΔR), Average / ΔΔRave: Δ(ΔR): reflectance change of stained cloth relative to buffer ΔR; settings: for cleaning / bleaching (in words): initiator alone or 4-EBA alone; for Δ(ΔR), Average / Δ(ΔR), #1 / Δ(ΔR), #2 / Δ(ΔR), #3: 1 mM, σav = 0.4; for Δ(ΔR), Average: average of #1-#3; for Δ(ΔR), #1: run #1; for Δ(ΔR), #2: run #2; for Δ(ΔR), #3: run #3
Method: A series of experiments were conducted to evaluate the bleaching effectiveness of NHPI and related imides. Table IV reports the effectiveness on tea stained cloth swatches by various imide initiators in combination with 4-ethylbenzaldehyde.
Value for Carbonate Buffer = ΔR
Value for Initiator = Δ(ΔR)
Value for 4EBA + Initiator = Δ(ΔR)
* = Statistically significant bleaching over buffer alone (σav

O=CCCCC=O
ΔΔRave on BC-1 at pH = 8 [1]: 0.7

O=CC(O)CO (racemic) [DL-Glyceraldehyde]
ΔΔRave on BC-1 at pH = 8 [1]: -0.8

O=Cc1ccccc1S(=O)(=O)O [1-Formylbenzene-2-sulfonic acid]
ΔΔRave on BC-1 at pH = 8 [1]: 0.5

O=Cc1c(F)c(F)cc(F)c1F [2,3,5,6-Tetrafluorobenzaldehyde]
ΔΔRave on BC-1 at pH = 8 [1]: 0.3

Cc1cc(C)c(C=O)c(C)c1 [2,4,6-Trimethylbenzaldehyde]
ΔΔRave on BC-1 at pH = 8 [1]: 6.3

Cc1ccc(C=O)c(C)c1 [2,4-Dimethylbenzaldehyde]
ΔΔRave on BC-1 at pH = 8 [1]: 8.9

Cc1ccc(C)c(C=O)c1 [2,5-Dimethylbenzaldehyde]
ΔΔRave on BC-1 at pH = 8 [1]: 8.8

O=Cc1c(Cl)cccc1Cl [2,6-Dichlorobenzaldehyde]
ΔΔRave on BC-1 at pH = 8 [1]: 0.0

O=Cc1ccccc1Br [2-Bromobenzaldehyde]
ΔΔRave on BC-1 at pH = 8 [1]: 2.1

O=Cc1ccccc1Cl [2-Chlorobenzaldehyde]
ΔΔRave on BC-1 at pH = 8 [1]: 8.7

O=Cc1ccccc1F [2-Fluorobenzaldehyde]
ΔΔRave on BC-1 at pH = 8 [1]: 1.0

O=Cc1ccco1 [2-Furfural]
ΔΔRave on BC-1 at pH = 8 [1]: 0.2

O=Cc1ccccc1O [2-Hydroxybenzaldehyde]
ΔΔRave on BC-1 at pH = 8 [1]: 0.4

O=Cc1ncc[nH]1 [2-Imidazolecarboxy Aldehyde]
ΔΔRave on BC-1 at pH = 8 [1]: -0.5

COc1ccccc1C=O [2-Methoxybenzaldehyde]
ΔΔRave on BC-1 at pH = 8 [1]: 0.8

Cc1ccccc1C=O [2-Methylbenzaldehyde]
ΔΔRave on BC-1 at pH = 8 [1]: 5.8

O=Cc1ccccc1[N+](=O)[O-] [2-Nitrobenzaldehyde]
ΔΔRave on BC-1 at pH = 8 [1]: 0.1

CC(C=O)c1ccccc1 (stereo not drawn) [2-Phenylpropionaldehyde]
ΔΔRave on BC-1 at pH = 8 [1]: 0.1

O=Cc1ccccc1C(F)(F)F [2-Trifluoromethylbenzaldehyde]
ΔΔRave on BC-1 at pH = 8 [1]: 10.2

Cc1ccc(C=O)cc1C [3,4-Dimethylbenzaldehyde]
ΔΔRave on BC-1 at pH = 8 [1]: 10.3

O=Cc1cc(Cl)cc(Cl)c1 [3,5-Dichlorobenzaldehyde]
ΔΔRave on BC-1 at pH = 8 [1]: -0.2

O=Cc1cc(F)cc(F)c1 [3,5-Difluorobenzaldehyde]
ΔΔRave on BC-1 at pH = 8 [1]: 0.9

COc1cc(C=O)cc(OC)c1 [3,5-Dimethoxybenzaldehyde]
ΔΔRave on BC-1 at pH = 8 [1]: 1.4

Cc1cc(C)cc(C=O)c1 [3,5-Dimethylbenzaldehyde]
ΔΔRave on BC-1 at pH = 8 [1]: 9.3

O=Cc1cc([N+](=O)[O-])cc([N+](=O)[O-])c1 [3,5-Dinitrobenzaldehyde]
ΔΔRave on BC-1 at pH = 8 [1]: 0.1

Cc1ccc(Oc2cccc(C=O)c2)cc1 [3-(4-Methylphenoxy)benzaldehyde]
ΔΔRave on BC-1 at pH = 8 [1]: 0.0

O=Cc1cccc(Br)c1 [3-Bromobenzaldehyde]
ΔΔRave on BC-1 at pH = 8 [1]: 3.2

O=Cc1cccc(Cl)c1 [3-Chlorobenzaldehyde]
ΔΔRave on BC-1 at pH = 8 [1]: 1.9

O=Cc1cccc(F)c1 [3-Fluorobenzaldehyde]
ΔΔRave on BC-1 at pH = 8 [1]: 0.6

O=Cc1cccc(O)c1 [3-Hydroxybenzaldehyde]
ΔΔRave on BC-1 at pH = 8 [1]: 0.8

COc1cccc(C=O)c1 [3-Methoxybenzaldehyde]
ΔΔRave on BC-1 at pH = 8 [1]: 0.6

Cc1cccc(C=O)c1 [3-Methylbenzaldehyde]
ΔΔRave on BC-1 at pH = 8 [1]: 10.0

O=Cc1cccc([N+](=O)[O-])c1 [3-Nitrobenzaldehyde]
ΔΔRave on BC-1 at pH = 8 [1]: 1.2

O=Cc1cccc(Oc2ccccc2)c1 [3-Phenoxybenzaldehyde]
ΔΔRave on BC-1 at pH = 8 [1]: 1.1

O=Cc1cccc(C(F)(F)F)c1 [3-Trifluoromethylbenzaldehyde]
ΔΔRave on BC-1 at pH = 8 [1]: 3.1

O=Cc1ccc(Br)cc1 [4-Bromobenzaldehyde]
ΔΔRave on BC-1 at pH = 8 [1]: 0.1

O=Cc1ccc(C(=O)O)cc1 [4-Carboxybenzaldehyde]
ΔΔRave on BC-1 at pH = 8 [1]: -0.1

O=Cc1ccc(Cl)cc1 [4-Chlorobenzaldehyde]
ΔΔRave on BC-1 at pH = 8 [1]: -0.1

CN(C)c1ccc(C=O)cc1 [4-Dimethylaminobenzaldehyde]
ΔΔRave on BC-1 at pH = 8 [1]: 1.0

CCOc1ccc(C=O)cc1 [4-Ethoxybenzaldehyde]
ΔΔRave on BC-1 at pH = 8 [1]: 0.4

CCc1ccc(C=O)cc1 [4-Ethylbenzaldehyde]
ΔΔRave on BC-1 at pH = 8 [1]: 11.5
cleaning / bleaching (in words) [2]: small and inconsistent; also recorded: do not effectively clean stubborn tea stains

O=Cc1ccc(F)cc1 [4-Fluorobenzaldehyde]
ΔΔRave on BC-1 at pH = 8 [1]: 1.6

O=CN1CCOCC1 [4-Formylmorpholine]
ΔΔRave on BC-1 at pH = 8 [1]: 0.1

CCCCCCOc1ccc(C=O)cc1 [4-Hexyloxybenzaldehyde]
ΔΔRave on BC-1 at pH = 8 [1]: 0.5

CC(C)(C)c1cc(C=O)cc(C(C)(C)C)c1O [4-Hydroxy-3,5-t-Butylbenzaldehyde]
ΔΔRave on BC-1 at pH = 8 [1]: 0.0

O=Cc1ccc(O)cc1 [4-Hydroxybenzaldehyde]
ΔΔRave on BC-1 at pH = 8 [1]: 0.7

CC(C)c1ccc(C=O)cc1 [4-Isopropylbenzaldehyde]
ΔΔRave on BC-1 at pH = 8 [1]: 1.5

COc1ccc(C=O)cc1C [4-Methoxy-3-Methylbenzaldehyde]
ΔΔRave on BC-1 at pH = 8 [1]: 0.4

COc1ccc(C=O)cc1 [4-Methoxybenzaldehyde]
ΔΔRave on BC-1 at pH = 8 [1]: 1.2

Cc1ccc(C=O)cc1 [4-Methylbenzaldehyde]
ΔΔRave on BC-1 at pH = 8 [1]: 8.3

O=Cc1ccc([N+](=O)[O-])cc1 [4-Nitrobenzaldehyde]
ΔΔRave on BC-1 at pH = 8 [1]: 0.3

CCCOc1ccc(C=O)cc1 [4-Propyoxybenzaldehyde]
ΔΔRave on BC-1 at pH = 8 [1]: 0.2

O=Cc1ccc(C(F)(F)F)cc1 [4-Trifluoromethylbenzaldehyde]
ΔΔRave on BC-1 at pH = 8 [1]: 0.3

CC(C)(C)c1ccc(C=O)cc1 [4-t-Butylbenzaldehyde]
ΔΔRave on BC-1 at pH = 8 [1]: 1.3

O=Cc1ccc(S(=O)(=O)O)o1 [5-Formylfuran-2 sulfonic Acid]
ΔΔRave on BC-1 at pH = 8 [1]: -3.3

O=Cc1ccccc1 [Benzaldehyde]
ΔΔRave on BC-1 at pH = 8 [1]: 1.5

C/C=C/C=O [Crotonaldehyde]
ΔΔRave on BC-1 at pH = 8 [1]: 0.7

O=C[C@H](O)[C@@H](O)[C@H](O)[C@H](O)CO [D-Glucose]
ΔΔRave on BC-1 at pH = 8 [1]: 0.6

O=CC=O [Glyoxal]
ΔΔRave on BC-1 at pH = 8 [1]: 0.6

CC(C)C=O [Isobutyraldehyde]
ΔΔRave on BC-1 at pH = 8 [1]: 0.4

O=C1C=CC(=O)N1O [NHMI]
Δ(ΔR), Average ([2]; initiator alone): 0.3
Δ(ΔR), #1 ([2]; initiator alone): 0.6
Δ(ΔR), #2 ([2]; initiator alone): 0.1
Δ(ΔR), #3 ([2]; initiator alone): 0.3

O=C1c2ccccc2C(=O)N1O [NHPI, N-hydroxyphthalimide]
ΔΔRave ([2]; initiator alone): -0.2
cleaning / bleaching (in words) [2]: did not provide a cleaning benefit
Δ(ΔR), Average ([2]; initiator alone): -0.3
Δ(ΔR), #1 ([2]; initiator alone): -0.1
Δ(ΔR), #2 ([2]; initiator alone): 0.1
Δ(ΔR), #3 ([2]; initiator alone): -0.7

O=C1CC(S(=O)(=O)O)C(=O)N1O (stereo not drawn) [NHSISA]
Δ(ΔR), Average ([2]; initiator alone): 0.2
Δ(ΔR), #1 ([2]; initiator alone): 0.2
Δ(ΔR), #2 ([2]; initiator alone): 0.5
Δ(ΔR), #3 ([2]; initiator alone): 0.0

O=C1CCC(=O)N1O [NHSI]
Δ(ΔR), Average ([2]; initiator alone): 0.0
Δ(ΔR), #1 ([2]; initiator alone): 0.0
Δ(ΔR), #2 ([2]; initiator alone): 0.0
Δ(ΔR), #3 ([2]; initiator alone): 0.0

O=Cc1ccccc1C=O [Phenyl-1,2-dicarboxyaldehyde]
ΔΔRave on BC-1 at pH = 8 [1]: 1.1

O=Cc1cccc(C=O)c1 [Phenyl-1,3-dicarboxyaldehyde]
ΔΔRave on BC-1 at pH = 8 [1]: 0.2

O=Cc1ccc(C=O)cc1 [Phenyl-1,4-dicarboxyaldehyde]
ΔΔRave on BC-1 at pH = 8 [1]: -1.1

CC1(C)CCCC(C)(C)N1[O] [TEMPO]
Δ(ΔR), Average ([2]; initiator alone): 1.8
Δ(ΔR), #1 ([2]; initiator alone): 1.8
Δ(ΔR), #2 ([2]; initiator alone): 1.8
Δ(ΔR), #3 ([2]; initiator alone): 1.9

CCCC=O [n-Butyraldehyde]
ΔΔRave on BC-1 at pH = 8 [1]: 0.6

CCCCCCCCCC=O [n-Decylaldehyde]
ΔΔRave on BC-1 at pH = 8 [1]: 0.6

CCCCCCCCCCCC=O [n-Dodecylaldehyde]
ΔΔRave on BC-1 at pH = 8 [1]: 0.2

CCCCCCC=O [n-Heptyladehyde]
ΔΔRave on BC-1 at pH = 8 [1]: 0.8

CCCCCCCCCCC=O [n-Undecylaldehyde]
ΔΔRave on BC-1 at pH = 8 [1]: 0.0

O=C/C=C/c1ccccc1 [trans-Cinnamaldehyde]
ΔΔRave on BC-1 at pH = 8 [1]: 1.2

CCCCCC(C=O)=Cc1ccccc1 [α-Amylcinnamaldehyde]
ΔΔRave on BC-1 at pH = 8 [1]: 1.0

Reference: US6117833A, “Bleaching compositions and method for bleaching substrates directly with air” (priority 1998, dated 2000)
